Experimental data published in US11136325B2, “Pyrrolopyrimidine and pyrrolopyridine derivatives” (GALAPAGOS NV, priority 2017, dated 2021).

Columns and labels:
[1] = target: Full length human ASK1 protein (Homo sapiens (Human), UniProt Q99683); assay: ASK1 biochemical assay (AlphaScreen technology, MKK7 phosphorylation); conditions: 150 μM ATP, 400 nM MKK7, 0.8 nM ASK1
Excerpt: (§1) ASK1 and ASK2 biochemical activities were also quantified using AlphaScreen technology which measures the degree of phosphorylation of a protein substrate (MKK7). AlphaScreen technology is based on the binding of a substrate to two types of beads, acceptor and donor. Binding to one bead is through the tag of the substrate protein. Binding of the second bead is through phosphospecific binding of antibody to the phosphosite of the substrate. This forms a sandwich, with the acceptor and donor beads in close proximity. When the donor beads are excited by light in the 680 nm range, a singlet oxygen is released and causes emission of light from the acceptor in the 620 nm range which can be detected using a suitable plate reader.
(§2) The phosphorylation site on MKK7 (Ser271/Thr275) is then recognised by a phosphospecific antibody. The phosphospecific antibody is bound to the AlphaScreen acceptor beads through a Protein-A interaction. Phosphorylation of MKK7 by ASK1 or ASK2 subsequently facilitates the bringing together of the donor and acceptor beads into close proximity whereupon the transfer of the singlet oxygen leads to the generation of the AlphaScreen signal.
(§3) The assay was configured to run using the following conditions (final concentrations): 150 μM ATP; 400 nM MKK7; 0.8 nM ASK1 and 2 nM ASK2.
(§4) 100 nL of test compound (starting concentration 6 μM, 11 concentrations with 3 fold serial dilutions) in 100% DMSO was added to low volume 384 well plates. 2.5 μl of ASK1 or ASK2 was added to each well except in the control wells to which 2.5 μl buffer was added. 2.5 μl of MKK7 solution was added to all wells. The plate was incubated for 60 minutes at room temperature. Protein-A acceptor beads and phospho-specific antibody were incubated for 30 minutes and then 2.5 μl of Protein-A acceptor beads/phospho-specific antibody mix (2.5 μg/ml acceptor beads final concentration and 1/800 antibody final dilution) was added to each well. The plate was incubated for 30 minutes at room temperature and then 2.5 μl of GSH donor beads (10 μg/ml acceptor beads final concentration) was added to each well. The plate was incubated for a further 60 minutes at room temperature, following which the plate was read on a Perkin Elmer Enspire plate reader.
Calculation of IC50 data, curves and QC analysis were made by using Excel tools and GraphPadPrism software, v. 5.03. Briefly, individual concentration-effect curves were generated by plotting the logarithm of the tested concentration of tested compounds (X) vs. corresponding percent inhibition values (Y) using least squares (ordinary) fit. Fitting equation used for IC50 calculation=log(inhibitor) vs. response−Variable slope (four parameters).

[2] = target: T1, ASK2 (Homo sapiens (Human), UniProt O95382); assay: ASK2 biochemical assay (IMAP technology); conditions: 25 nM hASK2
Excerpt: IMAP® technology provides a homogeneous assay applicable to a wide variety of kinases, phosphatases, and phosphodiesterases without regard for substrate peptide sequence. The assay is a simple mix-and-read procedure allowing accurate determination of enzyme activity. Based on the specific, high-affinity interaction of phospho groups with trivalent metal-containing nanoparticles (beads), IMAP is a generic, non-antibody-based platform to assess kinase, phosphatase, and phosphodiesterase activity. An enzyme reaction is performed using fluorescently labeled substrate. Addition of the IMAP Binding System stops the enzyme reaction and initiates binding of the beads to phosphorylated substrates. Binding of the substrate to the beads, which correlates to enzyme activity, can be detected using either FP or TR-FRET as a readout.
KIT IMAP FP, Cat. No. R8127; Reaction Buffer-Tween (5× conc.), Molecular Devices, Cat. No. R7436; Diluted 1:5 with H2O and containing DTT (1 mM from 1M stock); Progressive Binding Buffer (PBB) A (5× conc.), Molecular Devices, Cat. No. R7282; Progressive Binding Reagent (PB Reagent), Molecular Devices, Cat. No. R7284; Enzyme Solution (containing 2× Ask1 in Reaction buffer); Substrate Solution (containing 2× peptide substrate in Reaction buffer, and 2×150 μM ATP in Reaction buffer); Bead Buffer (Progressive Binding Buffer A diluted 1:5 with H2O); Bead Solution (Bead Buffer containing 1:200 Progressive Binding Reagent (2×))
100 nL of test compound in 100% DMSO was added to 384-well plates. […] The plates were then incubated for 2 h at room temperature after which time the plates were read on a Perkin Elmer EnVision plate reader.
Calculation of IC50 data, curves and QC analysis was made by using Excel tools and GraphPadPrism software, v. […] Calculated results: Calc 1: mP value for FP measurement=1000*(S−G*P)/(S+G*P) where S=<detector 2 or FP-BodipyTAMRA_Ex531-Em579-optimized(1) channel 2>P=<detector 1 or FP-BodipyTAMRA_Ex531-Em579-optimized(1) channel 1>G=G-factor. […] Top constrain is used only if top values are not correctly calculated. […]

[3] = target: T1, ASK2; assay: ASK2 biochemical assay (AlphaScreen technology, MKK7 phosphorylation); conditions: 150 μM ATP, 400 nM MKK7, 2 nM ASK2
Excerpt: as §1, §2, §3
as §4, with “The plate was incubated for 30 minutes at room temperature and then 2.5 μl of GSH donor beads (10 μg/ml acceptor beads final concentration) was added to each well.” left out, “reader. […]” for “reader.”

Full length human ASK1 protein, sequence (Q99683 whole entry): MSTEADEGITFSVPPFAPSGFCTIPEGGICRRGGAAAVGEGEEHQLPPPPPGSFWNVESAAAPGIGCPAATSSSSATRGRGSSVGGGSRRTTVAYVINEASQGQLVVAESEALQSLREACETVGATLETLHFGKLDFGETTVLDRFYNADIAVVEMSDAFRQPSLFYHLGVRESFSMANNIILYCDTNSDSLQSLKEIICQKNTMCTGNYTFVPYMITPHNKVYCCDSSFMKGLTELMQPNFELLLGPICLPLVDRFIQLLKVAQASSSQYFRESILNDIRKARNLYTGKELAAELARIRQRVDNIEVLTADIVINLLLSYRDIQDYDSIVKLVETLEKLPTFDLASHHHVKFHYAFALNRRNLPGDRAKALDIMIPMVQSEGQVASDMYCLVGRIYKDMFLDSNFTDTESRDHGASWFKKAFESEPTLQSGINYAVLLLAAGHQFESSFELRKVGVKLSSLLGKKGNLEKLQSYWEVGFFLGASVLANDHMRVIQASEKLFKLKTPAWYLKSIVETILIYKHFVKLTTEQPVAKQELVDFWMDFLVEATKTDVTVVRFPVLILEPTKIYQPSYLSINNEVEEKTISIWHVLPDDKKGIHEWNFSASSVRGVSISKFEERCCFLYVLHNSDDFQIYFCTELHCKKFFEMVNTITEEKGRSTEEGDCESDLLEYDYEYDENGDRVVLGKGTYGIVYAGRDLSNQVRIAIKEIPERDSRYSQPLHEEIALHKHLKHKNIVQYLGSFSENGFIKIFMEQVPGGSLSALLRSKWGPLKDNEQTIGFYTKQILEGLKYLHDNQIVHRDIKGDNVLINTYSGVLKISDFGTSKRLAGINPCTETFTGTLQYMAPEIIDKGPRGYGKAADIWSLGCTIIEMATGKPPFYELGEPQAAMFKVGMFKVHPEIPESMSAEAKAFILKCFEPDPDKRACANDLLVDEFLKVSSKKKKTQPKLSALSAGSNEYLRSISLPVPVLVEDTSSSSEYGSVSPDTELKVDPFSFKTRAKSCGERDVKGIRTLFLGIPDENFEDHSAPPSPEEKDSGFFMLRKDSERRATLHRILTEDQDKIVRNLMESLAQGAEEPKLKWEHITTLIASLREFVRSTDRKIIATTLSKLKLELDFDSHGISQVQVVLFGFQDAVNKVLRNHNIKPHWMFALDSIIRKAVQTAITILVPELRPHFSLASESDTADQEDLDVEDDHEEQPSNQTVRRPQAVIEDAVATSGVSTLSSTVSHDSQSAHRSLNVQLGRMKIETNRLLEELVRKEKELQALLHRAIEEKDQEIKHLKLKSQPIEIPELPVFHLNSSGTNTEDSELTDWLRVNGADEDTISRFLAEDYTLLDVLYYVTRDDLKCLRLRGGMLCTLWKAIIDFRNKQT
T1 sequence (O95382 whole entry): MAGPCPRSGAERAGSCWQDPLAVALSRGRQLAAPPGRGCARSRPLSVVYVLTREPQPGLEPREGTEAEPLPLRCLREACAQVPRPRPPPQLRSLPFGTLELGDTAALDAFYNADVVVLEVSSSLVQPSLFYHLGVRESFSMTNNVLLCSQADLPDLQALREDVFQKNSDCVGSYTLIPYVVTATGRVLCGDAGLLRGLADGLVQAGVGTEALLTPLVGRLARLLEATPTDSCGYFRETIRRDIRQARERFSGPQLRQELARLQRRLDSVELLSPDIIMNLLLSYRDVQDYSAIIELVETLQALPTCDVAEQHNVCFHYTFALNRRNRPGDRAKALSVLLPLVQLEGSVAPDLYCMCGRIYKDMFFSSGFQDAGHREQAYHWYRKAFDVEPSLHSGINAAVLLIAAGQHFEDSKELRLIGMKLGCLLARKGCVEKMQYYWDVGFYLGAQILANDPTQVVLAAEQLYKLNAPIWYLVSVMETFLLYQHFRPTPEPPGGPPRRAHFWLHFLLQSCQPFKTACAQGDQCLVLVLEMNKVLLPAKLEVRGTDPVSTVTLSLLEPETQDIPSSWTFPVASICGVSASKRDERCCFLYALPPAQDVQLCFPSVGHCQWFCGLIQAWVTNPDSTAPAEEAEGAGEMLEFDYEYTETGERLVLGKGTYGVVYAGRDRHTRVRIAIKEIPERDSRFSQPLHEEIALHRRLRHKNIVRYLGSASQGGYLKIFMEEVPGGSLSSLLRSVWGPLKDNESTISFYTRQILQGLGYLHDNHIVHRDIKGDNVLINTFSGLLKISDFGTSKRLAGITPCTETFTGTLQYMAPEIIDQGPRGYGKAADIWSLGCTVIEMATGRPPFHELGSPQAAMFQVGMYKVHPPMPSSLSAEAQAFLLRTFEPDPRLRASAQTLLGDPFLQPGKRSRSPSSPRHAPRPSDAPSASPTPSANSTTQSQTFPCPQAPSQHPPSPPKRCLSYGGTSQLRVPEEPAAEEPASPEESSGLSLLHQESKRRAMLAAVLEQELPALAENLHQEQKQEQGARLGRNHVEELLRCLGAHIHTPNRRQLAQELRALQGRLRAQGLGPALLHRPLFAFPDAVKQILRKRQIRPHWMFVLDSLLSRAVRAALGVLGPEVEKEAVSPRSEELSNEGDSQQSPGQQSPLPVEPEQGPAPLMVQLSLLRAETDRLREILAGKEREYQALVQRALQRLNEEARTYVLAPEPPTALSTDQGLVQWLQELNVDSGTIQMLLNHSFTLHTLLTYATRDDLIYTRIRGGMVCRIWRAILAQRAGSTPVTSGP

Compound	Inhibition (pIC50) ASK1 [1]	Inhibition (pIC50) ASK2 [2]	Inhibition (pIC50) ASK2 [3]
Nc1cc(C(=O)NC2CCN(c3ncnc4[nH]cc(Cl)c34)CC2)c(F)cn1 [Compound 5, 2-amino-N-[1-(5-chloro-7H-pyrrolo[2,3-d]pyrimidin-4-yl)-4-piperidyl]-5-fluoro-pyridine-4-carboxamide]	8.8/—		
Cc1c[nH]c2ncnc(N3CCC(NC(=O)c4cc(N)ncc4Cl)CC3)c12 [Compound 3, 2-amino-5-chloro-N-[1-(5-methyl-7H-pyrrolo[2,3-d]pyrimidin-4-yl)-4-piperidyl]-pyridine-4-carboxamide]	8.7		7.8
Cc1cnc(N)cc1C(=O)NC1CCN(c2ncnc3[nH]cc(C)c23)CC1 [Compound 2, 2-amino-5-methyl-N-[1-(5-methyl-7H-pyrrolo[2,3-d]pyrimidin-4-yl)-4-piperidyl]pyridine-4-carboxamide]	8.9/—	8.08	

Now from value to compound:

Inhibition (pIC50) ASK1 [1]	Inhibition (pIC50) ASK2 [2]	Inhibition (pIC50) ASK2 [3]	Compound
8.72	7.96	7.71	Cc1c[nH]c2ncnc(N3CCC(NC(=O)c4cc(N)ncc4F)CC3)c12 [Compound 1, 2-amino-5-fluoro-N-[1-(5-methyl-7H-pyrrolo[2,3-d]pyrimidin-4-yl)-4-piperidyl]pyridine-4-carboxamide]
9.4	8.19	8.2	Nc1cc(C(=O)NC2CCN(c3ncnc4[nH]cc(Cl)c34)CC2)ccn1 [Compound 4, 2-amino-N-[1-(5-chloro-7H-pyrrolo[2,3-d]pyrimidin-4-yl)-4-piperidyl]pyridine-4-carboxamide]
8.98/—^			Cc1c[nH]c2ncc(C#N)c(N3CCC(NC(=O)c4cc(N)ncc4F)CC3)c12 [Compound 6, 2-amino-N-[1-(5-cyano-3-methyl-1H-pyrrolo[2,3-b]pyridin-4-yl)-4-piperidyl]-5-fluoro-pyridine-4-carboxamide]
8.24/—^			Nc1cc(C(=O)NC2CCN(c3ccnc4[nH]cc(Cl)c34)CC2)c(F)cn1 [Compound 7, 2-amino-N-[1-(3-chloro-1H-pyrrolo[2,3-b]pyridin-4-yl)-4-piperidyl]-5-fluoro-pyridine-4-carboxamide]
